Experimental data taken from ChEMBL document CHEMBL1201862, “PubChem BioAssay data set” (2004).
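1) Cells in 96-well plates. 2) Compound, 48 h, 5 concentrations. 3) Linear interpolation between surrounding doses. 4) Unreached endpoint = highest concentration. The concentration for 50% growth inhibition is given as GI50.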 Activity calls are given as the source filed them. Rule as the data show it: active = GI50 up to about 1.1 µM and inactive = higher.

Key:
Assay in all cases: NCI anticancer screen, dose series, 48 h
[1] = test system: T47D
[2] = test system: BT-549
[3] = test system: Hs-578T
[4] = test system: MOLT-4
[5] = test system: SK-MEL-28
[6] = test system: HL-60
[7] = test system: Malme-3M
[8] = test system: SN12C
[9] = test system: RXF 393
[10] = test system: OVCAR-4
[11] = test system: COLO 205
[12] = test system: SNB-75
[13] = test system: DU-145
[14] = test system: NCI-H522
[15] = test system: OVCAR-5
[16] = test system: SK-OV-3
[17] = test system: NCI-H23

SMILES	GI50 [1]	GI50 [2]	GI50 [3]	GI50 [4]	GI50 [5]	GI50 [6]	GI50 [7]	GI50 [8]	GI50 [9]	GI50 [10]	GI50 [11]	GI50 [12]	GI50 [13]	GI50 [14]	GI50 [15]	GI50 [16]	GI50 [17]
OC1OC(c2ccc[nH]2)C(F)(F)C(F)(F)C1(F)F (centres undefined)	> 100 µM (inactive)	> 100 µM (inactive)	> 100 µM (inactive)	> 100 µM (inactive)	> 100 µM (inactive)	43.5 µM (inactive)	> 100 µM (inactive)	> 100 µM (inactive)	> 100 µM (inactive)	73.1 µM (inactive)	26.7 µM (inactive)	60.8 µM (inactive)	> 100 µM (inactive)	> 100 µM (inactive)	> 100 µM (inactive)	> 100 µM (inactive)	–
COc1c2cc([N+](=O)[O-])cc1CNC(=O)CN1CCOCCOCCN(CCOCCOCC1)CC(=O)NC2	> 100 µM (inactive)	> 100 µM (inactive)	> 100 µM (inactive)	> 100 µM (inactive)	> 100 µM (inactive)	> 100 µM (inactive)	> 100 µM (inactive)	> 100 µM (inactive)	> 100 µM (inactive)	> 100 µM (inactive)	> 100 µM (inactive)	> 100 µM (inactive)	> 100 µM (inactive)	> 100 µM (inactive)	> 100 µM (inactive)	> 100 µM (inactive)	> 100 µM (inactive)
ClCc1nc2cc(Cl)ccc2o1	2.44 µM (inactive)	14.3 µM (inactive)	13.7 µM (inactive)	2.19 µM (inactive)	4.44 µM (inactive)	2.49 µM (inactive)	11.5 µM (inactive)	6.53 µM (inactive)	12.2 µM (inactive)	1.71 µM (inactive)	2.65 µM (inactive)	10.9 µM (inactive)	6.21 µM (inactive)	1.6 µM (inactive)	18.7 µM (inactive)	14.8 µM (inactive)	8.99 µM (inactive)
N#CCc1nc(C#N)c(N)o1	> 100 µM (inactive)	> 100 µM (inactive)	> 100 µM (inactive)	> 100 µM (inactive)	> 100 µM (inactive)	–	< 0.01 µM (active)	> 100 µM (inactive)	> 100 µM (inactive)	> 100 µM (inactive)	> 100 µM (inactive)	–	> 100 µM (inactive)	> 100 µM (inactive)	> 100 µM (inactive)	> 100 µM (inactive)	> 100 µM (inactive)
CSc1nnc(SCc2nn3c(=O)cc(C)nc3s2)s1	> 100 µM (inactive)	> 100 µM (inactive)	> 100 µM (inactive)	> 100 µM (inactive)	> 100 µM (inactive)	> 100 µM (inactive)	> 100 µM (inactive)	> 100 µM (inactive)	66.8 µM (inactive)	24.4 µM (inactive)	> 100 µM (inactive)	> 100 µM (inactive)	> 100 µM (inactive)	> 100 µM (inactive)	> 100 µM (inactive)	> 100 µM (inactive)	> 100 µM (inactive)
Nc1nn2c(=O)c3ccccc3nc2s1	87.3 µM (inactive)	22.6 µM (inactive)	> 100 µM (inactive)	23.3 µM (inactive)	> 100 µM (inactive)	–	–	65.6 µM (inactive)	> 100 µM (inactive)	> 100 µM (inactive)	35.4 µM (inactive)	> 100 µM (inactive)	> 100 µM (inactive)	17.5 µM (inactive)	> 100 µM (inactive)	> 100 µM (inactive)	28.4 µM (inactive)
S=C(N/N=C\C(=N/NC(=S)N1CCCCC1)c1ccccc1)N1CCCCC1	5.4 µM (inactive)	1.88 µM (inactive)	1.82 µM (inactive)	–	1.9 µM (inactive)	–	1.91 µM (inactive)	1.95 µM (inactive)	1.85 µM (inactive)	1.76 µM (inactive)	2.03 µM (inactive)	2.1 µM (inactive)	1.57 µM (inactive)	1.62 µM (inactive)	1.88 µM (inactive)	1.91 µM (inactive)	2.42 µM (inactive)
COC1CC(OC2C(C)OC(OC3C(C)OC(OC4C(C)OC(O[C@H]5CC[C@@]6(C)C(=CC[C@]7(O)[C@@H]6C[C@@H](OC(C)=O)[C@@]6(C)[C@]7(O)CC[C@@]6(O)C(C)=O)C5)CC4OC)CC3OC)CC2OC)OC(C)C1O (some centres undefined)	> 25 µM (inactive)	> 25 µM (inactive)	> 25 µM (inactive)	> 25 µM (inactive)	–	> 25 µM (inactive)	> 25 µM (inactive)	> 25 µM (inactive)	–	> 25 µM (inactive)	> 25 µM (inactive)	> 25 µM (inactive)	> 25 µM (inactive)	> 25 µM (inactive)	> 25 µM (inactive)	> 25 µM (inactive)	> 25 µM (inactive)
COc1ccc(S(=O)(=O)N2C(=O)CCC2C(=O)NC(N)=O)cc1 (centres undefined)	> 100 µM (inactive)	> 100 µM (inactive)	> 100 µM (inactive)	> 100 µM (inactive)	> 100 µM (inactive)	> 100 µM (inactive)	> 100 µM (inactive)	> 100 µM (inactive)	–	> 100 µM (inactive)	> 100 µM (inactive)	0.381 µM (active)	> 100 µM (inactive)	> 100 µM (inactive)	> 100 µM (inactive)	> 100 µM (inactive)	> 100 µM (inactive)
OCCCc1cc(O)c2c(c1)C(CO)C(c1ccc(O)c(O)c1)O2 (centres undefined)	80.2 µM (inactive)	> 100 µM (inactive)	> 100 µM (inactive)	> 100 µM (inactive)	> 100 µM (inactive)	> 100 µM (inactive)	> 100 µM (inactive)	> 100 µM (inactive)	–	> 10 µM (inactive)	> 100 µM (inactive)	–	> 100 µM (inactive)	48.8 µM (inactive)	> 100 µM (inactive)	> 100 µM (inactive)	> 100 µM (inactive)
CC1=NN(c2nc(N)nc(C(C)Cl)n2)C(C)(C)C1 (centres undefined)	> 100 µM (inactive)	> 100 µM (inactive)	> 100 µM (inactive)	> 100 µM (inactive)	> 100 µM (inactive)	> 100 µM (inactive)	–	–	> 100 µM (inactive)	> 100 µM (inactive)	> 100 µM (inactive)	> 100 µM (inactive)	> 100 µM (inactive)	–	–	> 100 µM (inactive)	> 100 µM (inactive)
C/C=C(/C)C(=O)O[C@H](C[C@@H](C)[C@H]1CC(c2ccoc2)OC1=O)[C@@]1(C)C(=O)CCC2O[C@]21C (some centres undefined)	> 100 µM (inactive)	> 100 µM (inactive)	> 100 µM (inactive)	> 100 µM (inactive)	> 100 µM (inactive)	> 100 µM (inactive)	> 100 µM (inactive)	–	> 100 µM (inactive)	> 100 µM (inactive)	> 100 µM (inactive)	> 100 µM (inactive)	> 100 µM (inactive)	> 100 µM (inactive)	> 100 µM (inactive)	> 100 µM (inactive)	> 100 µM (inactive)
CN(C)c1ccc(/C=C2\N=C(NNc3ccccc3)NC2=O)cc1	11.7 µM (inactive)	30 µM (inactive)	35 µM (inactive)	< 0.01 µM (active)	29.1 µM (inactive)	–	38.2 µM (inactive)	17.7 µM (inactive)	18.7 µM (inactive)	24.2 µM (inactive)	15.6 µM (inactive)	25.5 µM (inactive)	28.4 µM (inactive)	18.8 µM (inactive)	31.8 µM (inactive)	27.5 µM (inactive)	20 µM (inactive)
NC(CSc1nc2ccccn2c1[N+](=O)[O-])C(=O)O (centres undefined)	> 100 µM (inactive)	> 100 µM (inactive)	> 100 µM (inactive)	–	> 100 µM (inactive)	–	> 100 µM (inactive)	> 100 µM (inactive)	> 100 µM (inactive)	> 100 µM (inactive)	> 100 µM (inactive)	> 100 µM (inactive)	> 100 µM (inactive)	> 100 µM (inactive)	> 100 µM (inactive)	> 100 µM (inactive)	> 100 µM (inactive)
O=C1C(NCCN2CCOCC2)=C(Cl)C(=O)c2ncccc21	1.39 µM (inactive)	1.29 µM (inactive)	1.21 µM (inactive)	2.15 µM (inactive)	1.61 µM (inactive)	0.0249 µM (active)	0.564 µM (active)	1.36 µM (inactive)	0.327 µM (active)	–	–	1.12 µM (inactive)	1.01 µM (active)	–	1.7 µM (inactive)	1.43 µM (inactive)	0.556 µM (active)
C=CCOC(=O)N1c2ccc(O[Si](C)(C)C(C)(C)C)cc2[C@@]23O[C@@]24[C@@H]1C#C/C=C\C#C[C@]3(O)C(OC)(OC)C[C@@H]4C	25.3 µM (inactive)	> 100 µM (inactive)	37.8 µM (inactive)	2.89 µM (inactive)	> 100 µM (inactive)	–	> 100 µM (inactive)	> 84.7 µM (inactive)	29.5 µM (inactive)	48.6 µM (inactive)	> 26.8 µM (inactive)	4.82 µM (inactive)	> 80 µM (inactive)	44.6 µM (inactive)	> 100 µM (inactive)	7.36 µM (inactive)	16.3 µM (inactive)
O=C1CNc2cc(N3CCN(c4ccccc4)CC3)ccc2N1	> 100 µM (inactive)	> 100 µM (inactive)	> 100 µM (inactive)	> 100 µM (inactive)	> 100 µM (inactive)	> 100 µM (inactive)	> 100 µM (inactive)	–	> 100 µM (inactive)	> 100 µM (inactive)	> 100 µM (inactive)	> 100 µM (inactive)	> 100 µM (inactive)	> 100 µM (inactive)	> 100 µM (inactive)	> 100 µM (inactive)	> 100 µM (inactive)
